Source: US20260226128A1, “Capped Peptides and Methods for Using the Same” (The Board of Trustees of the Leland Stanford Junior …, priority 2023, published 2026)

How the values were obtained:
diet-induced obese mice [1] = experiment: Single dose in diet-induced obese mice, metabolic chambers (CAP-GDF15 experiments); type: in vivo, mouse; details: single dose 50 mg/kg intraperitoneally
Procedure: (§1) FIG. 5. Functional studies of CAP-GDF15 in feeding and energy balance in mice. […] (B) Representative extracted ion chromatogram and (C) mirror tandem fragmentation spectra of CAP-GDF15 (pGlu-[…]-NH2; +2 ion m/z=682.4) and the endogenous plasma peak. (D) Food intake, (E) respiratory exchange ratio (RER), and (F) ambulatory activity of 12-16-week diet-induced obese male mice following a single treatment of CAP-GDF15 (50 mg/kg, intraperitoneal) or vehicle control. (G) Food intake, (H) RER, and (I) ambulatory activity of 12-16-week diet-induced obese male mice following a single treatment of scrambled CAP-GDF15 (50 mg/kg, intraperitoneal, scrambled sequence: pGlu-[…]-NH2) or vehicle control. (J) 3-day food intake and (K) body weight of 12-16-week diet-induced obese male mice following treatment with CAP-GDF15 or scrambled CAP-GDF15 (50 mg/kg/day, IP), or vehicle control. Data are shown as means #SEM. For (D-F), N=12/group; for (G-I), N=8/group; for (J,K), N=7/group. For (D-1), injection occurred at time T=0 (5:00 μm) and data was collected for the following 16 hrs. For (D-K), ** P<0.01, *** P<0.001 by two-way ANOVA.
FIG. 6. Additional measurements from metabolic chambers of mice treated with CAP-GDF15. (A) VO2 and (B) VCO2 of 12-16-week diet-induced obese male mice following a single treatment of CAP-GDF15 (50 mg/kg, intraperitoneal) or vehicle control. (C) VO2 and (D) VCO2 of 12-16-week diet-induced obese male mice following a single treatment of scrambled CAP-GDF15 (50 mg/kg, intraperitoneal, scrambled sequence: p[…]-NH2) or vehicle control. Data are shown as means±SEM. For (A-B), N=12/group; for (C-D), N=8/group. For (A-D), injection occurred at time T=0 (5:00 μm) and data was collected for the subsequent 16 hrs.
To test this possibility, we administered a single dose of CAP-GDF15 (50 mg/kg, intraperitoneally) to diet-induced obese mice and measured whole body parameters of energy balance in metabolic chambers.
We next synthesized a control CAP-GDF15 peptide that preserved amino acid composition but scrambled the intervening amino acid sequence (scrambled CAP-GDF15, pGlu-[…]-NH2). […] We conclude that the hypophagic effects of CAP-GDF15 are specific to this amino acid sequence.
(§2) Mice and treatments. Animal experiments were performed according to a procedure approved by the Stanford University Administrative Panel on Laboratory Animal Care. Mice were maintained in 12-h light-dark cycles at 22° C. and about 50% relative humidity and fed a standard irradiated rodent diet. Where indicated, a high-fat diet (D12492, Research Diets 60% kcal from fat) was used. Male C57BL/6J (stock number 000664) and male C57BL/6J DIO mice were purchased from the Jackson Laboratory (stock number 380050). For studies in high fat diet-fed mice, peptides were dissolved in 18:1:1 (by volume) of saline: Kolliphor EL (Sigma Aldrich): DMSO and administered to mice by intraperitoneal injections at a volume of 10 μl/g at the indicated doses for the indicated times. For lipopolysaccharide injection, LPS was dissolved in saline and administered to mice at a volume of 5 μl/g at indicated dose. For fasting, food was removed from mice for 16 h. For running, a six-lane Columbus Instruments animal treadmill (product 1055-SRM-D65) was used with following 1 h protocol: 10 min at 6 m/min, 50 min at 18 m/min, and increase every 2 min by 2 m/min for the last 10 minutes, all at 12° incline. For all treatment experiments, mice were mock injected with the vehicle for 3-5 days until body weights were stabilized. Heparin plasm was harvested by submandibular bleed. For all experiments, mice were randomly assigned to treatment groups. Experimenters were not blinded to groups.
Metabolic chamber studies. For acute energy expenditure studies, food intake, RER, movement, VO2, and VCO2 were collected with CLAMS Oxymax Metabolic Cages. Mice were placed individual metabolic cages for 24 hours prior to experiment. […]

diet-induced obese mice [2] = experiment: Three-day daily dosing in diet-induced obese mice, food intake and body weight; type: in vivo, mouse; details: 50 mg/kg/day, IP, 3 days, versus vehicle control
Procedure: as §1
Lastly, to determine whether the acute hypophagic effects of CAP-GDF15 would lead to long-term suppression of feeding and obesity, we administered CAP-GDF15 or scrambled CAP-GDF15 (50 mg/kg/day, IP), or vehicle control to diet-induced obese mice. Food intake and body weight were monitored over a three-day period. […] Importantly, mice treated with the scrambled CAP-GDF15 peptide were indistinguishable in body weight or food intake from control mice (FIGS. 5J-5K).
as §2, with “For all treatment experiments, mice were mock injected with the vehicle for 3-5 days until body weights were stabilized. Heparin plasm was harvested by submandibular bleed. For all experiments, mice were randomly assigned to treatment groups. Experimenters were not blinded to groups.” left out

GH3 cells = experiment: Growth hormone secretion from GH3 cells (ELISA of media); type: cell-based, rat; details: 10 μM
Procedure: FIG. 13. Functional screen in GH3 cells identifies CAP-WNT9A as a growth hormone secretagogue in vitro. (A) Z-score of media growth hormone concentration with 1 hour treatment of 10 μM of 100% conserved capped peptides growth hormone secretagogue activity in GH3 cells (N=1 for all peptides and N=3 for DMSO). (B) Media growth hormone concentration with 1 hour treatment of 10 μM CAP-WNT9A or DMSO (N=3/group). (Error bars are SEM.)
In a functional screen in GH3 cells, a rat pituitary cell line, various capped peptides are shown to activate growth hormone secretion (FIG. 13A).
In vitro studies. GH3 cells (rat pituitary cell line, ATCC cat. #CCL-82.1) were cultured in F-12K medium with 2.5% fetal bovine serum and 15% horse serum. GH3 cells were washed, resuspended in Krebs Ringer Hepes Buffer, diluted to 0.5 million cells/mL, and aliquoted into tubes (300 μL/sample). The GH3 cells were then starved for 60 minutes in Krebs Ringer Hepes Buffer. The capped peptides (N=1 in screen and N=3 in repeat with CAP-WNT9A) or DMSO (N=3) control were added at a 10 μM final concentration. GH3 cells were incubated for 1 hour. Cells were pelleted with 5 min centrifuge spin at 500×g at 4 C. Grown hormone was measured in the supernatant with an ELISA kit (Thermo Cat #KRC5311) according to product protocol. Z-score of growth hormone concentration is shown. […]

| Substance | respiratory exchange ratio (RER) (diet-induced obese mice [1]; 16 hrs after injection) | food intake, effect in words (diet-induced obese mice [1]; identical experimental conditions) | body weight over three-day period (diet-induced obese mice [2]) | food intake over three-day period (diet-induced obese mice [2]) | growth hormone secretagogue activity in screen (Z-score of media growth hormone concentration) (GH3 cells; 1 hour treatment, N=1) | growth hormone concentration in media versus DMSO (GH3 cells; one hour treatment, N=3) | carbon dioxide production (VCO2) (diet-induced obese mice [1]) | movement (ambulatory activity) (diet-induced obese mice [1]) | oxygen consumption (VO2) (diet-induced obese mice [1]) | suppression of food intake compared to vehicle-treated mice (diet-induced obese mice [1]; 16 hrs after injection) |
| --- | --- | --- | --- | --- | --- | --- | --- | --- | --- | --- |
| pGlu-GLEALRARLRV-NH2 (HELM PEPTIDE1{[Glp].G.L.E.A.L.R.A.R.L.R.V.[am]}$$$$V2.0; SMILES CC(C)C[C@H](NC(=O)CNC(=O)[C@@H]1CCC(=O)N1)C(=O)N[C@@H](CCC(=O)O)C(=O)N[C@@H](C)C(=O)N[C@@H](CC(C)C)C(=O)N[C@@H](CCCNC(=N)N)C(=O)N[C@@H](C)C(=O)N[C@@H](CCCNC(=N)N)C(=O)N[C@@H](CC(C)C)C(=O)N[C@@H](CCCNC(=N)N)C(=O)N[C@H](C(N)=O)C(C)C) [scrambled CAP-GDF15, reference compound] | completely ineffective | completely ineffective | indistinguishable | indistinguishable |  |  |  |  |  |  |
| pGlu-WGGCGDNLKYSSKFVEFL-NH2 (HELM PEPTIDE1{[Glp].W.G.G.C.G.D.N.L.K.Y.S.S.K.F.V.E.F.L.[am]}$$$$V2.0; SMILES CC(C)C[C@H](NC(=O)[C@H](Cc1ccccc1)NC(=O)[C@H](CCC(=O)O)NC(=O)[C@@H](NC(=O)[C@H](Cc1ccccc1)NC(=O)[C@H](CCCCN)NC(=O)[C@H](CO)NC(=O)[C@H](CO)NC(=O)[C@H](Cc1ccc(O)cc1)NC(=O)[C@H](CCCCN)NC(=O)[C@H](CC(C)C)NC(=O)[C@H](CC(N)=O)NC(=O)[C@H](CC(=O)O)NC(=O)CNC(=O)[C@H](CS)NC(=O)CNC(=O)CNC(=O)[C@H](Cc1c[nH]c2ccccc12)NC(=O)[C@@H]1CCC(=O)N1)C(C)C)C(N)=O) [CAP-WNT9A, top hit of growth hormone secretagogue screen] |  |  |  |  | highest growth hormone secretagogue activity | increased by four times |  |  |  |  |
| pGlu-LELRLRVAAGR-NH2 (HELM PEPTIDE1{[Glp].L.E.L.R.L.R.V.A.A.G.R.[am]}$$$$V2.0; SMILES CC(C)C[C@H](NC(=O)[C@@H]1CCC(=O)N1)C(=O)N[C@@H](CCC(=O)O)C(=O)N[C@@H](CC(C)C)C(=O)N[C@@H](CCCNC(=N)N)C(=O)N[C@@H](CC(C)C)C(=O)N[C@@H](CCCNC(=N)N)C(=O)N[C@H](C(=O)N[C@@H](C)C(=O)N[C@@H](C)C(=O)NCC(=O)N[C@@H](CCCNC(=N)N)C(N)=O)C(C)C) [CAP-GDF15, 12-mer capped peptide from amino acids 174-185 of mouse GDF15 prepropeptide region] | suppression of respiratory exchange ratio (RER) was also observed |  | increasing reduction in body weight | durable suppression of food intake |  |  | did not alter | did not alter | did not alter | ~ 60% |
